In patent publication US20260345609A1, “METHODS FOR PROMOTING PERSISTENCE OF CELL THERAPY” (Legend Biotech Ireland Limited, priority 2022, published 2026):

Columns and labels:
Assay type in all cases: cell-based, human
CAR-γδT cells = assay: Effect of MTX concentration on proliferation of CAR-γδT cells in vitro (AOPI counting)
Experimental: 50 mL of fresh peripheral blood of volunteers was extracted, mixed with lymphocyte separation medium, and then peripheral blood mononuclear cells (PBMC) were separated by density gradient centrifugation. The isolated lymphocytes were overnight cultured in RPMI 1640 medium, supplemented with L-glutamine (2 mM, Sigma-Aldrich), penicillin (100 IU/mL)/streptomycin (100 μg/mL) (Sigma-Aldrich, Missouri, USA), 10% serum (Gibco, Massachusetts, USA), zoledronic acid (5 μM, Actavis, New Jersey, USA), IL-2 (100 IU/mL; Aldesleukin, Novartis, Frimley, UK). The γδT cells selected above were transduced with lentiviral vector expressing an anti-CLL1 CAR and DHFR L22F/F31S at a multiplicity of infection (MOI) of 5. After 48 hours of transduction, IL-2 (100 IU/mL) was added every 2-3 days to expand T cells expressing the anti-CLL1 CAR (hereinafter referred to as CAR-γδT cells).
Cultured with the addition of methotrexate (MTX) at the concentrations of 0 μM, 0.01 μM, 0.05 μM, 0.1 μM, 1 μM, or 2 μM, the cell number of LUCAR-20SD cells at day0 day3 day6 day9, day 12, and the cell number of CAR-γδT cells at day0 day2 day5 day7 were counted by AOPI. Cell proliferation curves were plotted separately.

[1] = tested on: untransduced T cells (UnT); assay: In vitro mixed lymphoid (MLR) model with LUCAR-20SD cells, UnT and Raji cells: host UnT cells; conditions: 0.05 μM, 1 μM, 2 μM MTX
Experimental: To evaluate the ability of LUCAR-20SD cells to tolerate allogeneic T cell rejection, an in vitro mixed lymphoid (MLR) model was established.
Using the T cells from a random healthy donor (B donor), LUCAR-20SD cells were prepared following the method in Example 1, as the graft cells. Un-transduced T cells (UnT) from another random healthy donor (Adonor) were also prepared, as the host cells.
The cell density of CD20 positive cells (lymphoma cell lines Raji, ATCC, CCL-86) was adjusted to 1×10^6 cells/mL. Raji cells were treated with 20 μg/mL mitomycin at 37° C. for 3 h, washed three times with 10 mL DPBS, and were resuspended in the culture medium. 20×10^6 untransduced T cells (UnT, T cell donor A), 1×10^6 LUCAR-20SD cells (T cell donor B), and 5×10^6 treated lymphoma cells Raji were mixed and cultured in the medium. The cell mixture was divided into 4 groups, and 0 μM MTX, 0.05 μM MTX, 1 μM MTX, or 2 μM MTX was added, respectively. […] According to the formula: fold change of cell number (UnT)=[cell number counted by AOPI×(CAR-CD5+%)]/20, fold change of cell number (LUCAR-20SD cells)=[cell number counted by AOPI×(CAR+CD5+%)]/1, the cell proliferation curves of UnT and LUCAR-20SD cells were plotted.

[2] = tested on: untransduced T cells (UnT); assay: In vitro mixed lymphoid (MLR) model with CAR-γδT cells, UnT and U937 cells: host UnT cells; conditions: 0.05 μM and 0.5 μM MTX; mixed culture with CAR-γδT and U937 cells
Experimental: To evaluate the ability of γδ T cells to tolerate allogeneic T cell rejection, an in vitro mixed lymphoid (MLR) model was established.
Using the T cells from a random healthy donor (B donor), CAR-γδT cells were prepared following the method in Example 1, as the graft cells. Un-transduced T cells (UnT) from another random healthy donor (T cell donor A) were also prepared, as the host cells.
The density of CLL1 positive human lymphoma cells (U937) was adjusted to 1×10^6 cells/mL. U937 cells were treated with 20 μg/mL mitomycin at 37° C. for 3 h, washed three times with 10 mL DPBS, and suspended in the culture medium. 20×10^6 untransduced T cells (UnT, T cell donor A), 1×10^6 CAR-γδT cells (T cell donor B), and 5×10^6 treated human lymphoma cells U937 were mixed and cultured in the medium. The cell mixture was divided into 3 groups, and 0 μM, 0.05 μM MTX, or 0.5 μM MTX was added, respectively. […] CAR-γδT cells were stimulated repeatedly with U937 cells at day0, day4, day7 at an E/T ratio of 1:1 According to the formula: fold change of cell number (UnT)=[cell number counted by AOPI×(CD3-/TCR VY9+%)]/20, fold change of cell number (CAR-γδT)=[cell number counted by AOPI×(CD3+/TCR Vγ9+%)]/1, the cell proliferation curves of UnT and CAR-γδT cells were plotted.

CN(Cc1cnc2nc(N)nc(N)c2n1)c1ccc(C(=O)N[C@@H](CCC(=O)O)C(=O)O)cc1 [MTX, methotrexate]
proliferation of CAR-γδT cells compared with 0 μM MTX (CAR-γδT cells; 0.01 μM to 0.1 μM MTX, day 7, p>0.05): not significantly different
proliferation of CAR-γδT cells compared with 0 μM MTX (CAR-γδT cells; 1 μM MTX and 2 μM MTX, day 7, p<0.05, dose-dependent): significantly decreased
minimal effective concentration (CAR-γδT cells; Homo sapiens, 168 h, day 7, read-out: MTX concentration that affects the proliferation of CAR-γδT cells): ≥ 1 µM
fold change of cell number (UnT) ([1]; day 1 to day 13): less than 1
proliferation of UnT cells ([1]; mixed culture with LUCAR-20SD and Raji cells): significantly inhibited
proliferation of UnT cells [2]: significantly inhibited
